Source: DBAASP
Converted amounts (≈) assume the structure as drawn. “And” between values parts separate entries of the source, which are not always exact repeats. Equal entries are not always repeated. Blank lines part the entries; values can stand above or below the molecule they belong to.

Legend:
Assay in all cases: ≥ marks a high value that may be exact or a test limit, other limits are often not marked, values filed in µg/mL are converted to µM
[1] = system: Candida glabrata ATCC 2001
[2] = system: Bacillus subtilis CCT 2576
[3] = system: Bacillus subtilis
[4] = system: Cronobacter sakazakii ATCC 29544
[5] = system: Shigella dysenteriae
[6] = system: Pseudomonas aeruginosa ATCC 27853
[7] = system: Klebsiella pneumoniae
[8] = system: Staphylococcus epidermidis
[9] = system: Bacillus subtilis ATCC 23857
[10] = system: Staphylococcus aureus
[11] = system: Staphylococcus aureus ATCC 6538
[12] = system: Pseudomonas aeruginosa
[13] = system: Staphylococcus epidermidis ATCC 12228
[14] = system: Candida albicans ATCC 14053
[15] = system: Candida tropicalis ATCC 750
[16] = system: Candida krusei ATCC 6258
[17] = system: Candida parapsilosis ATCC 22019
[18] = system: Pseudomonas aeruginosa ATCC 15422
[19] = system: Escherichia coli ML-35
[20] = system: Klebsiella pneumoniae ATCC 700603
[21] = system: Salmonella typhimurium
[22] = system: Escherichia coli
[23] = system: Staphylococcus aureus ATCC 29213
[24] = system: Pseudomonas aeruginosa Z61
[25] = system: Enterococcus faecalis ATCC 29212
[26] = system: Candida albicans 105
[27] = system: Staphylococcus aureus NCTC 4163
[28] = system: Salmonella enterica subsp. enterica serovar Typhimurium ATCC 14028s
[29] = system: Candida albicans 3153A
[30] = system: Staphylococcus aureus R147
[31] = system: Escherichia coli DC2
[32] = system: Pseudomonas aeruginosa PAO1
[33] = system: Escherichia coli O111
[34] = system: Escherichia coli UB1005
[35] = system: Salmonella enterica serovar Typhimurium MS4252S
[36] = system: Escherichia coli O157:H7
[37] = system: Staphylococcus aureus 1056
[38] = system: Aspergillus fumigatus
[39] = system: Pasteurella multocida
[40] = system: Salmonella enterica subsp. arizonae
[41] = system: Mannheimia haemolytica Serovar 1
[42] = system: Mannheimia haemolytica Serovar 2
[43] = system: Corynebacterium pseudotuberculosis ATCC 19410
[44] = system: Bibersteinia trehalosi
[45] = system: Mannheimia haemolytica Serovar 6
[46] = system: Trichophyton mentagrophytes
[47] = system: Trichoderma viride
[48] = system: Fusarium oxysporum
[49] = system: Saccharomyces cerevisiae
[50] = system: Fusarium culmorum

MIC [1]: 8 µM (≈ 13.2 µg/mL) | MIC [2]: 2.42 µM (≈ 4 µg/mL) | MIC [3]: 7.55 µM (≈ 12.5 µg/mL) | MIC [4]: ≥ 64 µM | MIC [5]: ≥ 45.3 µM | MIC [6]: 128 µM (≈ 212 µg/mL) | MIC [7]: 22.7 µM (≈ 37.5 µg/mL) | MIC [8]: ≥ 60.4 µM | MIC [9]: 8 µM and 4 µM | MIC [10]: 11.4 µM (≈ 18.8 µg/mL) | MIC [11]: 9.06 µM (≈ 15 µg/mL) | MIC [12]: > 60.4 µM | MIC [13]: 32 µM and > 16 µM | MIC [14]: 8 µM (≈ 13.2 µg/mL) | MIC [15]: 8 µM (≈ 13.2 µg/mL) | MIC [16]: 8 µM (≈ 13.2 µg/mL) | MIC [17]: ≥ 64 µM | MIC [18]: 4.83 µM (≈ 8 µg/mL) | MIC [19]: ≥ 32 µM | MIC [20]: 64 µM (≈ 106 µg/mL) | MIC [21]: ≥ 60.4 µM | MIC [22]: 45.3 µM (≈ 75 µg/mL) | MIC [23]: 32 µM (≈ 52.9 µg/mL)
SMILES: CC[C@H](C)[C@H](N)C(=O)N[C@@H](CC(=O)O)C(=O)N[C@@H](Cc1c[nH]c2ccccc12)C(=O)N[C@@H](CCCCN)C(=O)N[C@@H](CCCCN)C(=O)N[C@@H](CC(C)C)C(=O)N[C@@H](CC(C)C)C(=O)N[C@@H](CC(=O)O)C(=O)N[C@@H](C)C(=O)N[C@@H](C)C(=O)N[C@@H](CCCCN)C(=O)N[C@@H](CCC(N)=O)C(=O)N[C@H](C(=O)N[C@@H](CC(C)C)C(N)=O)[C@@H](C)CC [IDWKKLLDAAKQIL]

MIC [24]: 2.66 µM (≈ 8 µg/mL) | MIC [25]: 10.6 µM (≈ 32 µg/mL) | MIC [26]: 10.6 µM (≈ 32 µg/mL) | MIC [27]: 10.6 µM (≈ 32 µg/mL) | MIC [28]: 0.166 µM (≈ 0.5 µg/mL) | MIC [8]: 5.32 µM (≈ 16 µg/mL) | MIC [29]: 5.32 µM (≈ 16 µg/mL) | MIC [30]: 21.3 µM (≈ 64 µg/mL) | MIC [31]: 0.0416 µM (≈ 0.125 µg/mL) | MIC [32]: 1.33 µM (≈ 4 µg/mL) | MIC [33]: 0.665 µM (≈ 2 µg/mL) | MIC [34]: 0.0416 µM (≈ 0.125 µg/mL) | MIC [35]: 0.0416 µM (≈ 0.125 µg/mL) | MIC [36]: 2.66 µM and 5.42 µM | MIC [37]: 5.32 µM and 8.65 µM
SMILES: CC[C@H](C)[C@H](NC(=O)[C@@H]1CCCN1C(=O)[C@@H]1CCCN1C(=O)[C@H](CCCN=C(N)N)NC(=O)[C@H](Cc1ccccc1)NC(=O)[C@@H](N)CCCN=C(N)N)C(=O)N[C@@H](CCCN=C(N)N)C(=O)N[C@@H](CCCN=C(N)N)C(=O)N1CCC[C@H]1C(=O)N1CCC[C@H]1C(=O)N[C@H](C(=O)N[C@@H](CCCN=C(N)N)C(=O)N1CCC[C@H]1C(=O)N1CCC[C@H]1C(=O)N[C@@H](Cc1ccccc1)C(=O)N[C@@H](CCCN=C(N)N)C(=O)N1CCC[C@H]1C(=O)N1CCC[C@H]1C(=O)N[C@@H](Cc1ccccc1)C(=O)N[C@@H](CCCN=C(N)N)C(=O)N1CCC[C@H]1C(=O)N1CCC[C@H]1C(=O)N[C@H](C(=O)N[C@@H](CCCN=C(N)N)C(N)=O)C(C)C)[C@@H](C)CC [RFRPPIRRPPIRPPFRPPFRPPVR]

MIC [38]: 4.96 µM (≈ 8.3 µg/mL) | MIC [39]: 2.99 µM (≈ 5 µg/mL) | MIC [40]: 12 µM (≈ 20 µg/mL) | MIC [7]: 4.01 µM (≈ 6.7 µg/mL) | MIC [10]: 5.98 µM (≈ 9.99 µg/mL) | MIC [32]: 1.02 µM (≈ 1.7 µg/mL) | MIC [43]: 12 µM (≈ 20 µg/mL) | MIC [44]: 2.99 µM (≈ 5 µg/mL)
SMILES: CC[C@H](C)[C@H](NC(=O)[C@H](Cc1cnc[nH]1)NC(=O)[C@@H](NC(=O)[C@@H](NC(=O)[C@H](CCCCN)NC(=O)[C@H](CCCN=C(N)N)NC(=O)[C@@H](NC(=O)[C@@H](NC(=O)[C@H](CCCN=C(N)N)NC(=O)[C@H](CCCN=C(N)N)NC(=O)[C@@H](N)CC(C)C)[C@@H](C)CC)[C@@H](C)CC)[C@@H](C)CC)[C@@H](C)CC)C(=O)N[C@H](C(=O)N[C@@H](CCCCN)C(N)=O)[C@@H](C)CC [LRRIIRKIIHIIK]
MIC [41]: 1.97 µM (≈ 3.3 µg/mL) | MIC [42]: 1.02 µM (≈ 1.7 µg/mL) | MIC [45]: 2.51 µM (≈ 4.2 µg/mL)

MIC [46]: ≥ 35.4 µM | MIC [38]: 17.7 µM (≈ 72.4 µg/mL) | MIC [47]: 4.42 µM (≈ 18.1 µg/mL) | MIC [48]: 4.42 µM (≈ 18.1 µg/mL) | MIC [10]: 1.1 µM (≈ 4.52 µg/mL) | MIC [49]: ≥ 35.4 µM | MIC [50]: 2.21 µM (≈ 9.04 µg/mL)
SMILES: CC[C@H](C)[C@@H]1NC(=O)[C@@H]2CSSC[C@@H](C(=O)N[C@@H](CCCN=C(N)N)C(=O)N[C@@H](CCCN=C(N)N)C(=O)O)NC(=O)[C@H]([C@@H](C)O)NC(=O)[C@@H]3CSSC[C@H](NC(=O)[C@H](C)NC(=O)[C@H](C)NC(=O)[C@H](Cc4cnc[nH]4)NC(=O)CNC(=O)[C@H](C(C)C)NC(=O)CNC(=O)[C@H](Cc4ccccc4)NC(=O)[C@H](C)NC(=O)[C@H](CO)NC(=O)[C@H](CC(C)C)NC(=O)[C@H](CC(C)C)NC(=O)[C@H](CC(=O)O)NC(=O)[C@@H](NC(=O)[C@@H](NC(=O)[C@H](C)N)[C@@H](C)O)CSSC[C@H](NC(=O)[C@H](Cc4ccc(O)cc4)NC(=O)CNC(=O)CNC(=O)[C@H](CCCN=C(N)N)NC(=O)[C@H](Cc4ccc(O)cc4)NC(=O)CNC(=O)[C@H](Cc4cnc[nH]4)NC(=O)CNC1=O)C(=O)N[C@@H](CC(N)=O)C(=O)N[C@@H](CO)C(=O)N[C@@H](CCCCN)C(=O)N[C@@H](C)C(=O)N[C@@H](C(C)C)C(=O)N3)C(=O)N[C@@H](C)C(=O)N[C@@H](C)C(=O)N[C@@H](Cc1cnc[nH]1)C(=O)N2 [ATCDLLSAFGVGHAACAAHCIGHGYRGGYCNSKAVCTCRR]
